This note sets out measurements from patent US20140135319A1, “6-SUBSTITUTED IMIDAZOPYRAZINES FOR USE AS MPS-1 AND TKK INHIBITORS IN THE TREATMENT OF HYPERPROLIFERATIVE DISORDERS” (BAYER INTELLECTUAL PROPERTY GMBH, priority 2010, published 2014).

For the experiment, the target named is T1, human kinase Mps-1 (Homo sapiens, UniProt P33981).
T1 construct: N-terminally GST-tagged human full length recombinant Mps-1 kinase; GST (N); purchased Invitrogen, Karslruhe, Germany PV4071
T1 sequence (P33981 1-857): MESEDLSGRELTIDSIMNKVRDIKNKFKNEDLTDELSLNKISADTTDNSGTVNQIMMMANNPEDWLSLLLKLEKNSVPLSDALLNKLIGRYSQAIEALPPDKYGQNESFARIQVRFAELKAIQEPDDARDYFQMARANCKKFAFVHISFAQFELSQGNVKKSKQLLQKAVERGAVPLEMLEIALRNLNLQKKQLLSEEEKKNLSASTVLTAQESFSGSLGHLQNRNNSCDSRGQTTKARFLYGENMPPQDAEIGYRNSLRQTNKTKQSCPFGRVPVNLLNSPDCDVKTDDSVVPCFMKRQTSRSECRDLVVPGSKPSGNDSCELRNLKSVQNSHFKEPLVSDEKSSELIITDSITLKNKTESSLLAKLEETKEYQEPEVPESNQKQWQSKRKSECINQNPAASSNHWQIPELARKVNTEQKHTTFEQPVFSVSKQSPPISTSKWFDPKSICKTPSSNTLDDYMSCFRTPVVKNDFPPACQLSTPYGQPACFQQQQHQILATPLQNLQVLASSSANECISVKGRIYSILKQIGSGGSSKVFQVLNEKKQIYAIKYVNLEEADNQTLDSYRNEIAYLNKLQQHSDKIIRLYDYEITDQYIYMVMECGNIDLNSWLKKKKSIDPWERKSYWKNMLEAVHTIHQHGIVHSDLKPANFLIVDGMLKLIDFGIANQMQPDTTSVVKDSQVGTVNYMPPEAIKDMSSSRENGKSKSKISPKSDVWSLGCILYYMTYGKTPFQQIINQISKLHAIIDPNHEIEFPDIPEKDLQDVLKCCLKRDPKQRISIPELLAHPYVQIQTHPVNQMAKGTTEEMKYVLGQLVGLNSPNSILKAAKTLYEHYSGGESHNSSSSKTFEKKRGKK
Description: Mps-1 kinase assay (TR-FRET). The experiment is classed as biochemical. The conditions noted are these: GST-tagged human full length recombinant Mps-1; 10 μM ATP; 1 μM peptide substrate; 60 min at 22° C. Here is the method:
The human kinase Mps-1 phosphorylates a biotinylated substrate peptide. Detection of the phosphorylated product is achieved by time-resolved fluorescence resonance energy transfer (TR-FRET) from Europium-labelled anti-phospho-Serine/Threonine antibody as donor to streptavidin labelled with cross-linked allophycocyanin (SA-XLent) as acceptor. Compounds are tested for their inhibition of the kinase activity.
N-terminally GST-tagged human full length recombinant Mps-1 kinase (purchased from Invitrogen, Karslruhe, Germany, cat. no PV4071) was used. As substrate for the kinase reaction a biotinylated peptide of the amino-acid sequence […] (C-terminus in amide form, purchased from Biosynthan GmbH, Berlin) was used.
The concentration of Mps-1 in the assay was adjusted to the activity of the enzyme lot and was chosen appropriate to have the assay in the linear range, typical enzyme concentrations were in the range of about 1 nM (final conc. in the 5 μl assay volume).
The resulting mixture was incubated 1 h at 22° C. to allow the binding of the phosphorylated peptide to the anti-phospho(Ser/Thr)-Europium-antibody. Subsequently the amount of phosphorylated substrate was evaluated by measurement of the resonance energy transfer from the Europium-labelled anti-phospho(Ser/Thr) antibody to the Streptavidin-XLent. Therefore, the fluorescence emissions at 620 nm and 665 nm after excitation at 350 nm was measured in a Viewlux TR-FRET reader (PerkinElmer LAS, Rodgau-Jügesheim, Germany). The “blank-corrected normalized ratio” (a Viewlux specific readout, similar to the traditional ratio of the emissions at 665 nm and at 622 nm, in which blank and Eu-donor crosstalk are subtracted from the 665 nm signal before the ratio is calculated) was taken as the measure for the amount of phosphorylated substrate.
(TR-FRET usually uses a lanthanide donor and a delayed reading to cut background.)
As a reminder, the IC50 is the concentration needed to halve the response being measured. Take `Cn1nccc1CNc1nc(-c2ccncc2)cn2c(-c3ccc(C(=O)NC4CC4)c(Cl)c3)cnc12` [Example 1-46, 2-chloro-N-cyclopropyl-4-[8-{[(1-methyl-1H-pyrazol-5-yl)methyl]amino}-6-(pyridin-4-yl)imidazo[1,2-a]pyrazin-3-yl]benzamide]: the IC50 is 32.6 nM.
The same measure for `Cn1nccc1CNc1nc(-c2ccoc2)cn2c(-c3ccc(C(=O)NC4CC4)c(Cl)c3)cnc12` [Example 1-47, 2-chloro-N-cyclopropyl-4-[6-(furan-3-yl)-8-{[(1-methyl-1H-pyrazol-5-yl)methyl]amino}imidazo [1,2-a]pyrazin-3-yl] benzamide]: 25.5 nM; for `Cn1nccc1CNc1nc(-c2ccn[nH]2)cn2c(-c3ccc(C(=O)NC4CC4)c(Cl)c3)cnc12` [Example 1-48, 2-chloro-N-cyclopropyl-4-[8-{[(1-methyl-1H-pyrazol-5-yl)methyl]amino}-6-(1H-pyrazol-5-yl)imidazo[1,2-a]pyrazin-3-yl]benzamide]: 42.3 nM.
As to `CC(C)CNc1nc(-c2ccncc2)cn2c(-c3ccc(C(=O)NC4CC4)c(F)c3)cnc12` [Example 1-49, N-cyclopropyl-2-fluoro-4-{8-[(2-methylpropyl)amino]-6-(pyridin-4-yl)imidazo[1,2-a]pyrazin-3-yl}benzamide], the IC50 amounted to 3.7 nM.
The same measure for `CC(C)CNc1nc(-c2ccoc2)cn2c(-c3ccc(C(=O)NC4CC4)c(F)c3)cnc12` [Example 1-50, N-cyclopropyl-2-fluoro-4-{6-(furan-3-yl)-8-[(2-methylpropyl)amino]imidazo[1,2-a]pyrazin-3-yl}benzamide]: 9.2 nM.
The same measure for `CC(C)CNc1nc(-c2ccn[nH]2)cn2c(-c3ccc(C(=O)NC4CC4)c(F)c3)cnc12` [Example 1-51, N-cyclopropyl-2-fluoro-4-{8-[(2-methylpropyl)amino]-6-(1H-pyrazol-5-yl)imidazo[1,2-a]pyrazin-3-yl}benzamide]: 8.3 nM; for `CC(C)CNc1nc(C2=CCOCC2)cn2c(-c3ccc(C(=O)NC4CC4)c(F)c3)cnc12` [Example 1-52, N-cyclopropyl-4-{6-(3,6-dihydro-2H-pyran-4-yl)-8-[(2-methylpropyl)amino]imidazo[1,2-a]pyrazin-3-yl}-2-fluoro-benzamide]: 8.2 nM.
For `O=C(NC1CC1)c1ccc(-c2cnc3c(NCCC(F)(F)F)nc(-c4ccncc4)cn23)cc1F` [Example 1-53, N-cyclopropyl-2-fluoro-4-{6-(pyridin-4-yl)-8-[(3,3,3-trifluoropropyl)amino]imidazo[1,2-a]pyrazin-3-yl}benzamide], the IC50 amounted to 3.8 nM.
The value for `O=C(NC1CC1)c1ccc(-c2cnc3c(NCCC(F)(F)F)nc(-c4ccoc4)cn23)cc1F` [Example 1-54, N-cyclopropyl-2-fluoro-4-{6-(furan-3-yl)-8-[(3,3,3-trifluoropropyl)amino]imidazo[1,2-a]pyrazin-3-yl}benzamide] was 6.6 nM.
The same measure for `O=C(NC1CC1)c1ccc(-c2cnc3c(NCCC(F)(F)F)nc(-c4ccn[nH]4)cn23)cc1F` [Example 1-55, N-cyclopropyl-2-fluoro-4-{6-(1H-pyrazol-5-yl)-8-[(3,3,3-trifluoropropyl)amino]imidazo[1,2-a]pyrazin-3-yl}benzamide]: 9.6 nM.
The same measure for `O=C(NC1CC1)c1ccc(-c2cnc3c(NCCC(F)(F)F)nc(C4=CCOCC4)cn23)cc1F` [Example 1-56, N-cyclopropyl-4-{6-(3,6-dihydro-2H-pyran-4-yl)-8-[(3,3,3-trifluoro-propyl)amino]imidazo [1,2-a]pyrazin-3-yl}-2-fluorobenzamide]: 8.7 nM.
With `CC(C)(O)CNc1nc(-c2ccncc2)cn2c(-c3ccc(C(=O)NC4CC4)c(F)c3)cnc12` [Example 1-57, N-cyclopropyl-2-fluoro-4-{8-[(2-hydroxy-2-methylpropyl)amino]-6-(pyridin-4-yl)imidazo [1,2-a]pyrazin-3-yl} benzamide], the IC50 amounted to 24.1 nM.
The same measure for `CC(C)(O)CNc1nc(-c2ccoc2)cn2c(-c3ccc(C(=O)NC4CC4)c(F)c3)cnc12` [Example 1-58, N-cyclopropyl-2-fluoro-4-{6-(furan-3-yl)-8-[(2-hydroxy-2-methyl-propyl)amino]imidazo [1,2-a]pyrazin-3-yl} benzamide]: 23.1 nM.
The same measure for `CC(C)(O)CNc1nc(-c2ccn[nH]2)cn2c(-c3ccc(C(=O)NC4CC4)c(F)c3)cnc12` [Example 1-59, N-cyclopropyl-2-fluoro-4-{8-[(2-hydroxy-2-methylpropyl)amino]-6-(1H-pyrazol-5-yl)imidazo [1,2-a]pyrazin-3-yl} benzamide]: 101 nM; for `CC(C)(O)CNc1nc(C2=CCOCC2)cn2c(-c3ccc(C(=O)NC4CC4)c(F)c3)cnc12` [Example 1-60, N-cyclopropyl-4-{6-(3,6-dihydro-2H-pyran-4-yl)-8-[(2-hydroxy-2-methylpropyl)amino]imidazo[1,2-a]pyrazin-3-yl}-2-fluorobenzamide]: 30.4 nM.
Take `O=C(NC1CC1)c1ccc(-c2cnc3c(NCC4CCCO4)nc(-c4ccncc4)cn23)cc1F` (centres unmarked) [Example 1-61, N-cyclopropyl-2-fluoro-4-{6-(pyridin-4-yl)-8-[(tetrahydrofuran-2-ylmethyl)amino]imidazo [1,2-a]pyrazin-3-yl} benzamide]: the IC50 stood at 13.1 nM.
The value for `O=C(NC1CC1)c1ccc(-c2cnc3c(NCC4CCCO4)nc(-c4ccoc4)cn23)cc1F` (centres unmarked) [Example 1-62, N-cyclopropyl-2-fluoro-4-{6-(furan-3-yl)-8-[(tetrahydrofuran-2-ylmethyl)amino]imidazo [1,2-a]pyrazin-3-yl} benzamide] was 18.3 nM; that for `O=C(NC1CC1)c1ccc(-c2cnc3c(NCC4CCCO4)nc(-c4ccn[nH]4)cn23)cc1F` (centres unmarked) [Example 1-63, N-cyclopropyl-2-fluoro-4-{6-(1H-pyrazol-5-yl)-8-[(tetrahydrofuran-2-ylmethyl)amino]imidazo [1,2-a]pyrazin-3-yl} benzamide] was 95.5 nM.
The same measure for `Cn1nccc1CNc1nc(-c2ccncc2)cn2c(-c3ccc(C(=O)NC4CC4)c(F)c3)cnc12` [Example 1-64, N-cyclopropyl-2-fluoro-4-[8-{[(1-methyl-1H-pyrazol-5-yl)methyl]amino}-6-(pyridin-4-yl)imidazo[1,2-a]pyrazin-3-yl]benzamide]: 6.5 nM; for `Cn1nccc1CNc1nc(-c2ccoc2)cn2c(-c3ccc(C(=O)NC4CC4)c(F)c3)cnc12` [Example 1-65, N-cyclopropyl-2-fluoro-4-[6-(furan-3-yl)-8-{[(1-methyl-1H-pyrazol-5-yl)methyl]amino}imidazo [1,2-a]pyrazin-3-yl] benzamide]: 4.3 nM; for `Cn1nccc1CNc1nc(-c2ccn[nH]2)cn2c(-c3ccc(C(=O)NC4CC4)c(F)c3)cnc12` [Example 1-66, N-cyclopropyl-2-fluoro-4-[8-{[(1-methyl-1H-pyrazol-5-yl)methyl]amino}-6-(1H-pyrazol-5-yl)imidazo[1,2-a]pyrazin-3-yl]benzamide]: 30.5 nM.
For `Cn1nccc1CNc1nc(C2=CCOCC2)cn2c(-c3ccc(C(=O)NC4CC4)c(F)c3)cnc12` [Example 1-67, N-cyclopropyl-4-[6-(3,6-dihydro-2H-pyran-4-yl)-8-{[(1-methyl-1H-pyrazol-5-yl)methyl]amino}imidazo[1,2-a]pyrazin-3-yl]-2-fluoro-benzamide], the IC50 turned out to be 15.7 nM.
The value for `Cc1cc(-c2cn3c(-c4ccc(C(=O)NC5CC5)c(C)c4)cnc3c(NCCC(F)(F)F)n2)ccn1` [Example 1-68, N-cyclopropyl-2-methyl-4-{6-(2-methylpyridin-4-yl)-8-[(3,3,3-trifluoro-propyl)amino]imidazo [1,2-a]pyrazin-3-yl} benzamide] was 1.5 nM.
